In the NIST ThermoML archive (doi:10.1016/j.jct.2012.10.017):
± gives the expanded uncertainty stated by the source.

Conditions: Liquid, Ebulliometric method (Recirculating still)

Row | vapor or sublimation pressure (428.65 K) | vapor or sublimation pressure (449.39 K) | SMILES
1 | 100.7 ± 1.1 kPa | – | CC1=CCC2CC1C2(C)C (configuration not stated) [2-pinene]
2 | – | 100.7 ± 0.6 kPa | Cc1ccc(C(C)C)cc1 [1-(1-methylethyl)-4-methylbenzene]
